The source made the active and inactive calls. Rule as the data show it, for most assays here: actives have a measured Kd and inactives only a lower limit.
What was measured:
[1] = molecular target: Casein kinase II subunit alpha' (Homo sapiens, UniProt P19784)
[2] = molecular target: Insulin-like growth factor 1 receptor (Homo sapiens, UniProt P08069)
[3] = molecular target: Dual specificity protein kinase CLK1 (Homo sapiens, UniProt P49759)
[4] = molecular target: Adenylate kinase 2, mitochondrial (Homo sapiens, UniProt P54819)
[5] = molecular target: T1, Interleukin-1 receptor-associated kinase 4 (Homo sapiens, UniProt Q9NWZ3)
T1 sequence (Q9NWZ3 whole entry): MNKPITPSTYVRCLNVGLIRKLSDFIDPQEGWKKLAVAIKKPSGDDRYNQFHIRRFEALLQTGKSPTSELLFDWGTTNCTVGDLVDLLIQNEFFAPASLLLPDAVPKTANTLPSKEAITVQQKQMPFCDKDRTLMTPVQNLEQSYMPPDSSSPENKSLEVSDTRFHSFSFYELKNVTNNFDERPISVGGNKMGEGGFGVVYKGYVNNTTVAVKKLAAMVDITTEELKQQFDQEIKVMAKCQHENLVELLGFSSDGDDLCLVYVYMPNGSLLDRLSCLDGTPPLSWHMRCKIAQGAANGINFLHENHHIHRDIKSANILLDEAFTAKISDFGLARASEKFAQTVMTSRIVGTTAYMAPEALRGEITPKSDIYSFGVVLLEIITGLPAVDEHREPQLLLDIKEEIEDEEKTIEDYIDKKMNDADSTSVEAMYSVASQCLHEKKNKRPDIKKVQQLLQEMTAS

[6] = molecular target: T2, Serine/threonine-protein kinase ICK (Homo sapiens, UniProt Q9UPZ9)
T2 sequence (Q9UPZ9 whole entry): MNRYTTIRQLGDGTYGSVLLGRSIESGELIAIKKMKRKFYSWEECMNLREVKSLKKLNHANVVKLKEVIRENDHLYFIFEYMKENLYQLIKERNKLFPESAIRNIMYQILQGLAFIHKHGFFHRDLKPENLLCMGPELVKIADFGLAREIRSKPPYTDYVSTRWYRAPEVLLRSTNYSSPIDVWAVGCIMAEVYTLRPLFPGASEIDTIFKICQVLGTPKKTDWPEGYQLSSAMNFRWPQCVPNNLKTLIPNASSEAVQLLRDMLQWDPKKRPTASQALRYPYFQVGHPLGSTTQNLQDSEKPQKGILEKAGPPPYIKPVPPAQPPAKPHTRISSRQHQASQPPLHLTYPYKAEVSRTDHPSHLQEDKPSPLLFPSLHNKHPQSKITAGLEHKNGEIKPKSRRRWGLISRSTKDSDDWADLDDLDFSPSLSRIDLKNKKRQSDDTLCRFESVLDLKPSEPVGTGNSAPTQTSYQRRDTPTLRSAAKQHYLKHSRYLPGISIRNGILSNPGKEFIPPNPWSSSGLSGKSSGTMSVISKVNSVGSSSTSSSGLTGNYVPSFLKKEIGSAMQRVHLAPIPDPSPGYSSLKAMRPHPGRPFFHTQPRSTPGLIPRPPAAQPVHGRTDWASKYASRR

[7] = molecular target: T3, Heme oxygenase 2 (Homo sapiens, UniProt P30519)
T3 sequence (P30519 whole entry): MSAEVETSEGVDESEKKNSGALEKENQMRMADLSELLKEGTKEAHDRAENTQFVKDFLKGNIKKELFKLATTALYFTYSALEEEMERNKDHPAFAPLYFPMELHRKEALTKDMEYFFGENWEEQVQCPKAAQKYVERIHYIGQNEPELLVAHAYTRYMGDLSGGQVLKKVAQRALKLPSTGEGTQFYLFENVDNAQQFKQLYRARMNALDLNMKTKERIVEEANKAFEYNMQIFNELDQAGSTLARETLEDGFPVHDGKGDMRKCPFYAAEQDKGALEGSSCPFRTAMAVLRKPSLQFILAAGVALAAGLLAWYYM

[8] = molecular target: T4, Serine/threonine-protein kinase Nek3 (Homo sapiens, UniProt P51956)
T4 sequence (P51956 whole entry): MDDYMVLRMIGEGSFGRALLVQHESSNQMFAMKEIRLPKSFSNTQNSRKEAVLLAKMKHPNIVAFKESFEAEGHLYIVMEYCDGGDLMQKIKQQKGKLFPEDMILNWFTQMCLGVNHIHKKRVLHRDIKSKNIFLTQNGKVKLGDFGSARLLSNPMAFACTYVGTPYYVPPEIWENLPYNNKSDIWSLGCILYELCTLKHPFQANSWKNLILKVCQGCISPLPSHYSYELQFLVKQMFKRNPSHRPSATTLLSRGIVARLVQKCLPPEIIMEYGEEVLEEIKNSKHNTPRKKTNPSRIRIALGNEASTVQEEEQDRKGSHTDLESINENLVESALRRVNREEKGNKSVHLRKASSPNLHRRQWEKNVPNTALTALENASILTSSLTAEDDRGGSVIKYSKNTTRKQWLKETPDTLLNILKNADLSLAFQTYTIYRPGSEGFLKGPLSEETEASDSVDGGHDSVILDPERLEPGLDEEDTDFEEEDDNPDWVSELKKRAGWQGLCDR
Also: in the data inactive means no Kd found up to 30 µM.

Chain of Dual specificity protein kinase CLK1 (P49759 whole entry): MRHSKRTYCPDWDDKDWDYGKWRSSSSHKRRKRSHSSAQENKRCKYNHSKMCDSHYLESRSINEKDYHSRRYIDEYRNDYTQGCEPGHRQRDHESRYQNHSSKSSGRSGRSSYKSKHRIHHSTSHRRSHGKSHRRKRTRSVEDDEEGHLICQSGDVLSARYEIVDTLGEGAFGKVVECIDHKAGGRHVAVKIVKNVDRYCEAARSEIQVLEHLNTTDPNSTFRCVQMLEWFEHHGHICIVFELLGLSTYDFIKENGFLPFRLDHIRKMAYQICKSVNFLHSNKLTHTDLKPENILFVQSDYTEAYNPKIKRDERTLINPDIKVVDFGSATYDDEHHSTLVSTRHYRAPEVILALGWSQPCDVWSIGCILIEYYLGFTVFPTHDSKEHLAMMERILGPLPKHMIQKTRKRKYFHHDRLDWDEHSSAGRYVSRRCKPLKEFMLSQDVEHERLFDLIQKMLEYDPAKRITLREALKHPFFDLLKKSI
Chain of Casein kinase II subunit alpha' (P19784 whole entry): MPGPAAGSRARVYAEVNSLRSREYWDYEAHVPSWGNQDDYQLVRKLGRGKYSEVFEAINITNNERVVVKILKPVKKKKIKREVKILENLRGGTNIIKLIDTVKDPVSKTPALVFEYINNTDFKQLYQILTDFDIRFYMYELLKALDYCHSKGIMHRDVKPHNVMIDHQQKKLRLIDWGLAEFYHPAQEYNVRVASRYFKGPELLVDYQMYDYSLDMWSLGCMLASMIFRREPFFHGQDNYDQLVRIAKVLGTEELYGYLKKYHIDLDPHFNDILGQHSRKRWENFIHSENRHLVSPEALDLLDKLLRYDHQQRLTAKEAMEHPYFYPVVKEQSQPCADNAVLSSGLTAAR
Chain of Insulin-like growth factor 1 receptor (P08069 31-736 limits assumed): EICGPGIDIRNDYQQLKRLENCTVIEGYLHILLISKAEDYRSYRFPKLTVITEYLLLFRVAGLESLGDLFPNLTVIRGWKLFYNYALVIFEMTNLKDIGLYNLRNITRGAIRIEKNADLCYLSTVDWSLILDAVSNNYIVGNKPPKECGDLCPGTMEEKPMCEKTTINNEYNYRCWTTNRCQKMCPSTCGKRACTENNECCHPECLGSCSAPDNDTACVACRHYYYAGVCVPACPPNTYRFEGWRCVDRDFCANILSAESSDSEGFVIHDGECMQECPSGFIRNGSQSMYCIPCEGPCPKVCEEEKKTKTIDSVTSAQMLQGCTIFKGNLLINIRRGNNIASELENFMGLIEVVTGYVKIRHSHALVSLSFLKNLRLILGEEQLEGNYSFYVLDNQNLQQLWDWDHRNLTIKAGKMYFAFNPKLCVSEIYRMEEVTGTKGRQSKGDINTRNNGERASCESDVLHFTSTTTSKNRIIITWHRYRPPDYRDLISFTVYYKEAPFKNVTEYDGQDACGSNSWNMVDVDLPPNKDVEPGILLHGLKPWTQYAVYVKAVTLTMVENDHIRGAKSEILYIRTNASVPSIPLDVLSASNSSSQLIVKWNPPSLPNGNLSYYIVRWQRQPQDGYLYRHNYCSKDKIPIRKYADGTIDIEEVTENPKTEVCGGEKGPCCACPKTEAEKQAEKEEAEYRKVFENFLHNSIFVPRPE
Chain of Insulin-like growth factor 1 receptor (P08069 741-1367 limits assumed): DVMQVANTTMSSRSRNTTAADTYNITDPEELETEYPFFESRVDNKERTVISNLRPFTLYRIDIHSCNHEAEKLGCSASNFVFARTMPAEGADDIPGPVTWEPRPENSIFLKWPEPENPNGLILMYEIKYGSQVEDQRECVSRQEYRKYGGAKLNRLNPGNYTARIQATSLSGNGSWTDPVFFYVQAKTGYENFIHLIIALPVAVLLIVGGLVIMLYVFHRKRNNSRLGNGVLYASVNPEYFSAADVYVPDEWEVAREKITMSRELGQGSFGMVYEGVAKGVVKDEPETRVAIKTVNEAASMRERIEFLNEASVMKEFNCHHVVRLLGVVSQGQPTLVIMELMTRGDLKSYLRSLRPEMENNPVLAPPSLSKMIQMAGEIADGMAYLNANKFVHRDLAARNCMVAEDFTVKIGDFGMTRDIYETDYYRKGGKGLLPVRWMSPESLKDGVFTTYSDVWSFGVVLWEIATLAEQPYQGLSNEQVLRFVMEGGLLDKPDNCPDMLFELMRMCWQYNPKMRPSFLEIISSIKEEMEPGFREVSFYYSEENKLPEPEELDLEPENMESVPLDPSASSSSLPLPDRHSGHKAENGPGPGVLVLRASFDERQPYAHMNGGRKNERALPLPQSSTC

Row | SMILES | Kd [1] | Kd [2] | Kd [3] | Kd [4] | Kd [5] | Kd [6] | Kd [7] | Kd [8]
1 | CCOc1cc2ncc(C#N)c(Nc3ccc(F)c(Cl)c3)c2cc1NC(=O)/C=C/CN(C)C [PELITINIB] | > 30 µM (inactive) | > 30 µM (inactive) | > 30 µM (inactive) | > 30 µM (inactive) | > 30 µM (inactive) | > 30 µM (inactive) | > 30 µM (inactive) | > 30 µM (inactive)
2 | CCCCCCCCCCCCCCCCCCOP(=O)([O-])OC1CC[N+](C)(C)CC1 [PERIFOSINE] | > 30 µM (inactive) | > 30 µM (inactive) | > 30 µM (inactive) | > 30 µM (inactive) | > 30 µM (inactive) | > 30 µM (inactive) | > 30 µM (inactive) | > 30 µM (inactive)
3 | CNC(=O)c1cc(Oc2ccc(NC(=O)Nc3cc(C(C)(C)C)nn3-c3ccc4ncccc4c3)c(F)c2)ccn1 [REBASTINIB] | > 30 µM (inactive) | > 30 µM (inactive) | 2.14 µM (active) | > 30 µM (inactive) | 23.2 µM (active) | > 30 µM (inactive) | > 30 µM (inactive) | > 30 µM (inactive)
4 | CO[C@H]1C[C@@H]2CC[C@@H](C)[C@@](O)(O2)C(=O)C(=O)N2CCCC[C@H]2C(=O)O[C@H]([C@H](C)C[C@@H]2CC[C@@H](OP(C)(C)=O)[C@H](OC)C2)CC(=O)[C@H](C)/C=C(\C)[C@@H](O)[C@@H](OC)C(=O)[C@H](C)C[C@H](C)/C=C/C=C/C=C/1C [RIDAFOROLIMUS] | > 30 µM (inactive) | > 30 µM (inactive) | > 30 µM (inactive) | > 30 µM (inactive) | > 30 µM (inactive) | > 30 µM (inactive) | > 30 µM (inactive) | > 30 µM (inactive)
5 | O=c1[nH]ccc2cc(OC3CCNCC3)ccc12 [SAR-407899 FREE BASE] | > 30 µM (inactive) | > 30 µM (inactive) | > 30 µM (inactive) | > 30 µM (inactive) | > 30 µM (inactive) | > 30 µM (inactive) | > 30 µM (inactive) | > 30 µM (inactive)
6 | CN1CCN(CCOc2cc(OC3CCOCC3)c3c(Nc4c(Cl)ccc5c4OCO5)ncnc3c2)CC1 [SARACATINIB] | > 30 µM (inactive) | > 30 µM (inactive) | > 30 µM (inactive) | > 30 µM (inactive) | > 30 µM (inactive) | > 30 µM (inactive) | > 30 µM (inactive) | > 30 µM (inactive)
7 | CO[C@H]1C[C@@H]2CC[C@@H](C)[C@@](O)(O2)C(=O)C(=O)N2CCCC[C@H]2C(=O)O[C@H]([C@H](C)C[C@@H]2CC[C@@H](O)[C@H](OC)C2)CC(=O)[C@H](C)/C=C(\C)[C@@H](O)[C@@H](OC)C(=O)[C@H](C)C[C@H](C)/C=C/C=C/C=C/1C [SIROLIMUS] | > 30 µM (inactive) | > 30 µM (inactive) | > 30 µM (inactive) | > 30 µM (inactive) | > 30 µM (inactive) | > 30 µM (inactive) | > 30 µM (inactive) | > 30 µM (inactive)
8 | CO[C@H]1C[C@@H]2CC[C@@H](C)[C@@](O)(O2)C(=O)C(=O)N2CCCC[C@H]2C(=O)O[C@H]([C@H](C)C[C@@H]2CC[C@@H](OC(=O)C(C)(CO)CO)[C@H](OC)C2)CC(=O)[C@H](C)/C=C(\C)[C@@H](O)[C@@H](OC)C(=O)[C@H](C)C[C@H](C)/C=C/C=C/C=C/1C [TEMSIROLIMUS] | > 30 µM (inactive) | > 30 µM (inactive) | > 30 µM (inactive) | > 30 µM (inactive) | > 30 µM (inactive) | > 30 µM (inactive) | > 30 µM (inactive) | > 30 µM (inactive)

Other lines, results leading:

Row | Kd [1] | Kd [2] | Kd [3] | Kd [4] | Kd [5] | Kd [6] | Kd [7] | Kd [8] | SMILES
9 | > 30 µM (inactive) | > 30 µM (inactive) | > 30 µM (inactive) | > 30 µM (inactive) | > 30 µM (inactive) | > 30 µM (inactive) | > 30 µM (inactive) | > 30 µM (inactive) | CNC(=O)c1cccc2cc(Oc3ccnc4cc(OCC5(N)CC5)c(OC)cc34)ccc12 [LUCITANIB]
10 | > 30 µM (inactive) | > 30 µM (inactive) | > 30 µM (inactive) | > 30 µM (inactive) | > 30 µM (inactive) | > 30 µM (inactive) | > 30 µM (inactive) | > 30 µM (inactive) | Cn1cc(-c2cnc3ccc4ccc(CS(=O)(=O)NCc5ccccn5)cc4c(=O)c3c2)cn1 [MK-8033]
11 | > 30 µM (inactive) | > 30 µM (inactive) | > 30 µM (inactive) | > 30 µM (inactive) | > 30 µM (inactive) | > 30 µM (inactive) | > 30 µM (inactive) | > 30 µM (inactive) | FC(F)(F)c1ccc(/C=C/c2nc(COc3ccc(CCCCn4ccnn4)cc3)co2)cc1 [MUBRITINIB]
12 | > 30 µM (inactive) | > 30 µM (inactive) | > 30 µM (inactive) | > 30 µM (inactive) | > 30 µM (inactive) | > 30 µM (inactive) | > 30 µM (inactive) | > 30 µM (inactive) | COc1ncc(-c2ccc3nccc(-c4ccnnc4)c3c2)cc1NS(=O)(=O)c1ccc(F)cc1F [OMIPALISIB]
13 | > 30 µM (inactive) | > 30 µM (inactive) | 0.09 µM (active) | > 30 µM (inactive) | > 30 µM (inactive) | 0.237 µM | > 30 µM (inactive) | > 30 µM (inactive) | Cc1nc(Nc2n[nH]c3c2CN(C(=O)N[C@H](CN(C)C)c2ccccc2)C3(C)C)c2sccc2n1 [PF-03758309]
14 | > 30 µM (inactive) | > 30 µM (inactive) | > 30 µM (inactive) | > 30 µM (inactive) | > 30 µM (inactive) | > 30 µM (inactive) | > 30 µM (inactive) | > 30 µM (inactive) | Cc1cnc(NC(=O)Nc2cc(Br)c(C)cc2OC[C@@H]2CNCCO2)cn1 [RABUSERTIB]
15 | > 30 µM (inactive) | > 30 µM (inactive) | > 30 µM (inactive) | > 30 µM (inactive) | > 30 µM (inactive) | > 30 µM (inactive) | > 30 µM (inactive) | > 30 µM (inactive) | N#CC1(c2ccc(NC(=O)c3cccnc3NCc3ccncc3)cc2)CCCC1 [RIVOCERANIB]
16 | 0.279 µM (active) | > 30 µM (inactive) | > 30 µM (inactive) | > 30 µM (inactive) | 4.01 µM | > 30 µM (inactive) | > 30 µM (inactive) | > 30 µM (inactive) | Cn1cc(-c2cnn3c(N)c(Br)c([C@@H]4CCCNC4)nc23)cn1 [SCH-900776]
17 | 28.9 µM (active) | > 30 µM (inactive) | > 30 µM (inactive) | > 30 µM (inactive) | 2.13 µM (active) | > 30 µM (inactive) | > 30 µM (inactive) | > 30 µM (inactive) | CCS(=O)(=O)c1cccc(-c2cc(C(=O)NC3CCN(C)CC3)c(C)c3[nH]c4ncc(C)cc4c23)c1 [TAK-901]
18 | > 30 µM (inactive) | > 30 µM (inactive) | > 30 µM (inactive) | > 30 µM (inactive) | 1.17 µM (active) | > 30 µM (inactive) | > 30 µM (inactive) | > 30 µM (inactive) | COc1cc2c(Nc3ccc(Cl)c(Cl)c3F)ncnc2cc1OC[C@@H]1C[C@@H]2CN(C)C[C@@H]2C1 [TESEVATINIB]
